Legend:
Conditions in all cases: human; call rule not given here
Hepatotoxicity [1] = experiment: FDA HLAED, gamma-glutamyl transferase (GGT) increase
Hepatotoxicity [2] = experiment: FDA HLAED, lactate dehydrogenase (LDH) increase
Hepatotoxicity [3] = experiment: FDA HLAED, serum glutamic oxaloacetic transaminase (SGOT) increase
Hepatotoxicity [4] = experiment: FDA HLAED, liver enzyme composite activity
Hepatotoxicity [5] = experiment: FDA HLAED, alkaline phosphatase increase
Hepatotoxicity [6] = experiment: FDA HLAED, serum glutamic pyruvic transaminase (SGPT) increase
Wherever GGT Increase - Index Value is given: reference of the scale not given here.
Wherever LDH Increase - Index Value is given: reference of the scale not given here.

SMILES | GGT Increase - Activity Score (Hepatotoxicity [1]) | GGT Increase - Index Value (Hepatotoxicity [1]) | GGT Increase - Number of Reports (Hepatotoxicity [1]) | LDH Increase - Activity Score (Hepatotoxicity [2]) | LDH Increase - Index Value (Hepatotoxicity [2]) | LDH Increase - Number of Reports (Hepatotoxicity [2]) | SGOT Increase - Activity Score (Hepatotoxicity [3]) | SGOT Increase - Index Value (Hepatotoxicity [3]) | SGOT Increase - Number of Reports (Hepatotoxicity [3]) | Composite Activity - Active (Hepatotoxicity [4]) | Composite Activity - Marginal (Hepatotoxicity [4]) | Composite Activity - Score (Hepatotoxicity [4]) | Alkaline Phosphatase Increase - Activity Score (Hepatotoxicity [5]) | Alkaline Phosphatase Increase - Index Value (Hepatotoxicity [5]) | Alkaline Phosphatase Increase - Number of Reports (Hepatotoxicity [5]) | SGPT Increase - Activity Score (Hepatotoxicity [6]) | SGPT Increase - Index Value (Hepatotoxicity [6]) | SGPT Increase - Number of Reports (Hepatotoxicity [6]) | further results
CN1C(C(=O)Nc2ccccn2)=C(O)c2ccccc2S1(=O)=O [PIROXICAM] | Inactive | 0 | < 4 | Inactive | 0.5 | < 4 | Inactive | 1.7 | >= 4 | 0 | 0 | Inactive | Inactive | 2.6 | >= 4 | Inactive | 0.9 | >= 4 | –
COc1cc([C@@H]2c3cc4c(cc3[C@H](O)[C@H]3COC(=O)[C@H]23)OCO4)cc(OC)c1OC [PODOFILOX] | Inactive | 0 | < 4 | Inactive | 0 | < 4 | Inactive | 0 | < 4 | 0 | 0 | Inactive | Inactive | 0 | < 4 | Inactive | 0 | < 4 | –
CC[C@H](C)C(=O)O[C@H]1C[C@H](O)C=C2C=C[C@H](C)[C@H](CC[C@@H](O)C[C@@H](O)CC(=O)O)[C@H]21 [PRAVASTATIN] | Active | 5.3 | >= 4 | Marginally Active | 3.1 | >= 4 | Active | 6.2 | >= 4 | 4 | 1 | Active | Active | 4.5 | >= 4 | Active | 6.3 | >= 4 | –
O=C1CN=C(c2ccccc2)c2cc(Cl)ccc2N1CC1CC1 [PRAZEPAM] | Inactive | 0 | < 4 | Inactive | 0 | < 4 | Inactive | 0.3 | < 4 | 0 | 0 | Inactive | Inactive | 0.3 | < 4 | Inactive | 0.3 | < 4 | –
CCN(CC)CCNC(=O)c1ccc(N)cc1 [PROCAINAMIDE] | Inactive | 0 | < 4 | Inactive | 0 | < 4 | Inactive | 0 | < 4 | 0 | 0 | Inactive | Inactive | 0 | < 4 | Inactive | 0 | < 4 | –
CCCNCC(O)COc1ccccc1C(=O)CCc1ccccc1 (stereo unspecified) [PROPAFENONE] | Inactive | 2.9 | < 4 | Inactive | 1.9 | < 4 | Active | 5.7 | >= 4 | – | – | – | Active | 7.6 | >= 4 | Active | 4.7 | >= 4 | Composite Activity - Active (Hepatotoxicity [4]; Liver): 3; Composite Activity - Marginal (Hepatotoxicity [4]; Liver): 0; Composite Activity - Score (Hepatotoxicity [4]; Liver): Active
CC(C)c1cccc(C(C)C)c1O [PROPOFOL] | Inactive | 0.1 | < 4 | Inactive | 0.5 | >= 4 | Inactive | 0.7 | >= 4 | – | – | – | Inactive | 0.4 | >= 4 | Inactive | 0.5 | >= 4 | Composite Activity - Active (Hepatotoxicity [4]; Liver): 0; Composite Activity - Marginal (Hepatotoxicity [4]; Liver): 0; Composite Activity - Score (Hepatotoxicity [4]; Liver): Inactive
Fc1ccccc1C1=NCC(=S)N(CC(F)(F)F)c2ccc(Cl)cc21 [QUAZEPAM] | Inactive | 0 | < 4 | Inactive | 0 | < 4 | Inactive | 0 | < 4 | 0 | 0 | Inactive | Inactive | 0 | < 4 | Inactive | 0 | < 4 | –
CNC(=C[N+](=O)[O-])NCCSCc1ccc(CN(C)C)o1 [RANITIDINE] | Inactive | 0 | < 4 | Inactive | 0.3 | >= 4 | Inactive | 1.2 | >= 4 | 0 | 0 | Inactive | Inactive | 1.1 | >= 4 | Inactive | 1 | >= 4 | –
CO[C@H]1/C=C/O[C@@]2(C)Oc3c(C)c(O)c4c(c3C2=O)C2=NC3(CCN(CC(C)C)CC3)NC2=C(NC(=O)/C(C)=C\C=C\[C@H](C)[C@H](O)[C@@H](C)[C@@H](O)[C@@H](C)[C@H](OC(C)=O)[C@@H]1C)C4=O [RIFABUTIN] | Active | 18.5 | >= 4 | Inactive | 5.3 | < 4 | Active | 31.8 | >= 4 | – | – | – | Active | 15.9 | >= 4 | Active | 31.8 | >= 4 | Composite Activity - Active (Hepatotoxicity [4]; Liver): 4; Composite Activity - Marginal (Hepatotoxicity [4]; Liver): 0; Composite Activity - Score (Hepatotoxicity [4]; Liver): Active
Nc1nc2ccc(OC(F)(F)F)cc2s1 [RILUZOLE] | Inactive | 22.6 | < 4 | Inactive | 22.6 | < 4 | Inactive | 22.6 | < 4 | 1 | 0 | Inactive | Active | 45.2 | < 4 | Inactive | 22.6 | < 4 | –
CC(N)C12CC3CC(CC(C3)C1)C2 (stereo unspecified) [RIMANTADINE] | Inactive | 0 | < 4 | Inactive | 0 | < 4 | Inactive | 3.3 | < 4 | 0 | 0 | Inactive | Inactive | 1.7 | < 4 | Inactive | 1.7 | < 4 | –

From ChEMBL document CHEMBL1697781, “Assessment of the health effects of chemicals in humans: II. Construction of an adverse effects database for QSAR modeling” (Curr Drug Discov Technol, 2004)
